Experimental data reported in patent publication US20210115494A1, “Improved method for measurement of microbial biomass” (Mycometer A/S, priority 2018, published 2021).

What was measured:
Type in all cases: biochemical
[1] = system: NAHA activity from Alternaria tenuissima; experiment: NAHA activity assay, Alternaria tenuissima
Protocol: (§1) In order to determine NAHA activity in different samples, the technology in WO 98/033934 was employed: A sample containing a dried or freeze dried organism is added to a buffer solution containing 4-Methylumbelliferyl N-acetyl-β-D-glucosaminide in a concentration of 20 μM. The reaction-time is varied depending on the ambient temperature and according to a reaction-time/temperature data sheet previously developed for fungal NAHA activity at various temperatures, and is 30 minutes at 23° C. The resulting fluorescence formed during the reaction time is monitored in a calibrated fluorometer.
(§2) Experiments analogous to those in example 1 were carried out, but instead of using non-specific inhibitors, the effect of different concentrations of DNJNAc on the NAHA activity in various biomass containing samples was investigated.

[2] = system: NAHA activity from Acremonium spp.; experiment: NAHA activity assay, Acremonium spp.; conditions: Acremonium sp.
Protocol: as §1
(§3) Experiments were conducted where varying concentrations of AgNO3 was added to an analysis substrate. Furthermore, the experiments where performed on dried or freeze dried materials where both intact and fragmented cells are to be expected to be present.
as §2

[3] = system: NAHA activity from Birch pollen; experiment: NAHA activity assay, birch pollen; conditions: Birch sollen
Protocol: as §1, §3, §2

[4] = system: NAHA activity from Stachybotrys chartarum; experiment: NAHA activity assay, Stachybotrys chartarum
Protocol: as §1, §3, §2

[5] = system: NAHA activity from Aspergillus fumigatus; experiment: NAHA activity assay, Aspergillus fumigatus (Table 4b, state not given)
Protocol: as §1, §2

## CC(=O)N[C@H]1CN[C@H](CO)[C@@H](O)[C@@H]1O [DNJNAc, 2-Acetamido-1,2-dideoxynojirimycin]
[1]; DNJNAc 24.5 μM
  NAHA activity, 0 μM DNJNAc = 100%: 72%
[1]; DNJNAc 49 μM
  NAHA activity, 0 μM DNJNAc = 100%: 79%
[1]; DNJNAc 98 μM
  NAHA activity, 0 μM DNJNAc = 100%: 58%
[1]; DNJNAc 196 μM
  NAHA activity, 0 μM DNJNAc = 100%: 48%
[2]; DNJNAc 24.5 μM
  NAHA activity, 0 μM DNJNAc = 100%: 99%
[2]; DNJNAc 49 μM
  NAHA activity, 0 μM DNJNAc = 100%: 92%
[2]; DNJNAc 98 μM
  NAHA activity, 0 μM DNJNAc = 100%: 80%
[2]; DNJNAc 196 μM
  NAHA activity, 0 μM DNJNAc = 100%: 76%
[3]; DNJNAc 24.5 μM
  NAHA activity, 0 μM DNJNAc = 100%: 10%
[3]; DNJNAc 49 μM
  NAHA activity, 0 μM DNJNAc = 100%: 9%
[3]; DNJNAc 98 μM
  NAHA activity, 0 μM DNJNAc = 100%: 8%
[3]; DNJNAc 196 μM
  NAHA activity, 0 μM DNJNAc = 100%: 9%
[4]; DNJNAc 24.5 μM
  NAHA activity, 0 μM DNJNAc = 100%: 90%
[4]; DNJNAc 98 μM
  NAHA activity, 0 μM DNJNAc = 100%: 97%
[4]; DNJNAc 196 μM
  NAHA activity, 0 μM DNJNAc = 100%: 85%
[5]; DNJNAc 24.5 μM
  NAHA activity, 0 μM DNJNAc = 100%: 122%
[5]; DNJNAc 49 μM
  NAHA activity, 0 μM DNJNAc = 100%: 110%
[5]; DNJNAc 98 μM
  NAHA activity, 0 μM DNJNAc = 100%: 89%
[5]; DNJNAc 196 μM
  NAHA activity, 0 μM DNJNAc = 100%: 88%
